According to PubChem BioAssay AID1963966 (Molecular Pharmacology Branch, DTP, NCI, 2024):

System: 935938-334-R-J1-PDC spheroids with HUVEC/MSC, viability
Experiment: Anticancer human tumor 935938-334-R-J1-PDC patient-derived small intestine adenocarcinoma cell line growth inhibition [PI3K]
Conditions: for IC50: curve of first compound; for viability, T/C: stronger effect = lower value; active means viability on the fitted dose curve at most 10% of control; inactive means the rest
Procedure, shortened: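 Viability of mixed-cell spheroids was determined after exposure to pairwise combinations, one partner being inavolisib, alpelisib, duvelisib or copanlisib. Highest tested concentration matched clinical Cmax where known and 10 microM where not, descending in half-log steps.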

[1] = second compound 0.0316 µM, first compound 0.0316 µM
[2] = second compound 0.0316 µM, first compound 0.1 µM
[3] = second compound 0.0316 µM, first compound 0.316 µM
[4] = second compound 0.0316 µM, first compound 1 µM
[5] = second compound 0.0316 µM, first compound 3.16 µM
[6] = second compound 0.0316 µM, first compound 10 µM
[7] = second compound 0.1 µM, first compound 0.0316 µM
[8] = second compound 0.1 µM, first compound 0.1 µM
[9] = second compound 0.1 µM, first compound 0.316 µM
[10] = second compound 0.1 µM, first compound 1 µM
[11] = second compound 0.1 µM, first compound 3.16 µM
[12] = second compound 0.1 µM, first compound 10 µM
[13] = second compound 0.316 µM, first compound 0.0316 µM
[14] = second compound 0.316 µM, first compound 0.1 µM
[15] = second compound 0.316 µM, first compound 0.316 µM
[16] = second compound 0.316 µM, first compound 1 µM
[17] = second compound 0.316 µM, first compound 3.16 µM
[18] = second compound 0.316 µM, first compound 10 µM
[19] = second compound 1 µM, first compound 0.0316 µM
[20] = second compound 1 µM, first compound 0.1 µM
[21] = second compound 1 µM, first compound 0.316 µM
[22] = second compound 1 µM, first compound 1 µM
[23] = second compound 1 µM, first compound 3.16 µM
[24] = second compound 1 µM, first compound 10 µM
[25] = second compound 3.16 µM, first compound 0.0316 µM
[26] = second compound 3.16 µM, first compound 0.1 µM
[27] = second compound 3.16 µM, first compound 0.316 µM
[28] = second compound 3.16 µM, first compound 1 µM
[29] = second compound 3.16 µM, first compound 3.16 µM
[30] = second compound 3.16 µM, first compound 10 µM
[31] = second compound 10 µM, first compound 0.0316 µM
[32] = second compound 10 µM, first compound 0.1 µM
[33] = second compound 10 µM, first compound 0.316 µM
[34] = second compound 10 µM, first compound 1 µM
[35] = second compound 10 µM, first compound 3.16 µM
[36] = second compound 10 µM, first compound 10 µM
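Further: compound exposure lasted seven days before viability was read.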
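Wherever viability, T/C is given: percent of vehicle DMSO treated spheroid viability so 100% = untreated.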

C#Cc1c(F)ccc2cc(O)cc(-c3ncc4c(N5CC6CCC(C5)N6)nc(OCC56CCCN5CC(F)C6)nc4c3F)c12 (stereo not drawn) + Cc1nc(NC(=O)N2CCCC2C(N)=O)sc1-c1ccnc(C(C)(C)C(F)(F)F)c1
528 nM: IC50 (second compound 1 µM)
1490 nM: IC50 (second compound 0.316 µM)
987 nM: IC50 (second compound 0.0316 µM)
1870 nM: IC50 (second compound 0.1 µM)
48.9 nM: IC50 (second compound 3.16 µM)
inactive: viability, T/C [1] 101% | viability, T/C [2] 89.2% | viability, T/C [3] 107% | viability, T/C [4] 49.4% | viability, T/C [5] 36.8% | viability, T/C [6] 32.7% | viability, T/C [7] 88.8% | viability, T/C [8] 73.6% | viability, T/C [9] 79% | viability, T/C [10] 60% | viability, T/C [11] 40.7% | viability, T/C [12] 27.6% | viability, T/C [13] 94.4% | viability, T/C [14] 80% | viability, T/C [15] 77.3% | viability, T/C [16] 59.5% | viability, T/C [17] 33.4% | viability, T/C [18] 29.4% | viability, T/C [19] 76.5% | viability, T/C [20] 85.9% | viability, T/C [21] 60.4% | viability, T/C [22] 35.4% | viability, T/C [23] 29.3% | viability, T/C [24] 21.1% | viability, T/C [25] 51.5% | viability, T/C [26] 46.5% | viability, T/C [27] 40.7% | viability, T/C [28] 30.8% | viability, T/C [29] 25.7% | viability, T/C [30] 23.4% | viability, T/C [31] 47.8% | viability, T/C [32] 33.2% | viability, T/C [33] 36.8% | viability, T/C [34] 27.6% | viability, T/C [35] 17.3% | viability, T/C [36] 16%
< 31.6 nM: IC50 (second compound 10 µM)

C=CC(=O)N1CCN(c2nc(=O)n(-c3c(C)ccnc3C(C)C)c3nc(-c4c(O)cccc4F)c(F)cc23)C(C)C1 (stereo not drawn) + Cc1nc(NC(=O)N2CCCC2C(N)=O)sc1-c1ccnc(C(C)(C)C(F)(F)F)c1
< 31.6 nM: IC50 (second compound 10 µM)
inactive: viability, T/C [1] 73% | viability, T/C [2] 92.1% | viability, T/C [3] 88% | viability, T/C [4] 98.7% | viability, T/C [5] 85.7% | viability, T/C [6] 86.8% | viability, T/C [7] 79.2% | viability, T/C [8] 76.2% | viability, T/C [9] 91.2% | viability, T/C [10] 60.7% | viability, T/C [11] 79.5% | viability, T/C [12] 95.8% | viability, T/C [13] 91% | viability, T/C [14] 96% | viability, T/C [15] 74.2% | viability, T/C [16] 69.5% | viability, T/C [17] 72.7% | viability, T/C [18] 92.3% | viability, T/C [19] 68.4% | viability, T/C [20] 64% | viability, T/C [21] 60.5% | viability, T/C [22] 68.7% | viability, T/C [23] 77.3% | viability, T/C [24] 47.4% | viability, T/C [25] 48.4% | viability, T/C [26] 55.1% | viability, T/C [27] 45.1% | viability, T/C [28] 57.1% | viability, T/C [29] 64.7% | viability, T/C [30] 42.5% | viability, T/C [31] 43.2% | viability, T/C [32] 40.1% | viability, T/C [33] 47.3% | viability, T/C [34] 36.5% | viability, T/C [35] 35% | viability, T/C [36] 32.2%
> 10000 nM: IC50 (second compound 0.0316 µM) | IC50 (second compound 0.1 µM) | IC50 (second compound 0.316 µM) | IC50 (second compound 1 µM) | IC50 (second compound 3.16 µM)

CC(Cn1ccc(-c2ccc(C#N)c(Cl)c2)n1)NC(=O)c1cc(C(C)O)[nH]n1 (stereo not drawn) + Cc1nc(NC(=O)N2CCCC2C(N)=O)sc1-c1ccnc(C(C)(C)C(F)(F)F)c1
< 31.6 nM: IC50 (second compound 10 µM)
> 10000 nM: IC50 (second compound 0.0316 µM) | IC50 (second compound 0.1 µM) | IC50 (second compound 0.316 µM) | IC50 (second compound 1 µM)
inactive: viability, T/C [1] 81.8% | viability, T/C [2] 101% | viability, T/C [3] 89.8% | viability, T/C [4] 91% | viability, T/C [5] 104% | viability, T/C [6] 78.3% | viability, T/C [7] 109% | viability, T/C [8] 72.3% | viability, T/C [9] 99.4% | viability, T/C [10] 77.2% | viability, T/C [11] 97.6% | viability, T/C [12] 75.6% | viability, T/C [13] 81.8% | viability, T/C [14] 81.6% | viability, T/C [15] 58.5% | viability, T/C [16] 82% | viability, T/C [17] 75.5% | viability, T/C [18] 84.8% | viability, T/C [19] 79.2% | viability, T/C [20] 79.6% | viability, T/C [21] 62.3% | viability, T/C [22] 65% | viability, T/C [23] 64.6% | viability, T/C [24] 47.7% | viability, T/C [25] 62.7% | viability, T/C [26] 61% | viability, T/C [27] 50.3% | viability, T/C [28] 44.3% | viability, T/C [29] 59.4% | viability, T/C [30] 43.9% | viability, T/C [31] 46.3% | viability, T/C [32] 42.6% | viability, T/C [33] 52.3% | viability, T/C [34] 51.8% | viability, T/C [35] 44.3% | viability, T/C [36] 40%
400 nM: IC50 (second compound 3.16 µM)

Cn1nccc1Nc1nccc(-c2ccn(C(CO)c3ccc(Cl)c(F)c3)c(=O)c2)n1 (stereo not drawn) + Cc1nc(NC(=O)N2CCCC2C(N)=O)sc1-c1ccnc(C(C)(C)C(F)(F)F)c1
973 nM: IC50 (second compound 0.1 µM)
315 nM: IC50 (second compound 0.316 µM)
inactive: viability, T/C [1] 92.1% | viability, T/C [2] 80.5% | viability, T/C [3] 61% | viability, T/C [4] 48.5% | viability, T/C [5] 36.2% | viability, T/C [6] 31.6% | viability, T/C [7] 100% | viability, T/C [8] 73.5% | viability, T/C [9] 62% | viability, T/C [10] 53.4% | viability, T/C [11] 38.6% | viability, T/C [12] 25.1% | viability, T/C [13] 94.1% | viability, T/C [14] 71% | viability, T/C [15] 48.2% | viability, T/C [16] 39.3% | viability, T/C [17] 25% | viability, T/C [18] 25.6% | viability, T/C [19] 62.2% | viability, T/C [20] 75.7% | viability, T/C [21] 39.7% | viability, T/C [22] 26% | viability, T/C [23] 25.8% | viability, T/C [24] 19.2% | viability, T/C [25] 50.6% | viability, T/C [26] 51.3% | viability, T/C [27] 33.1% | viability, T/C [28] 37.4% | viability, T/C [29] 20.8% | viability, T/C [30] 18.7% | viability, T/C [31] 43.9% | viability, T/C [32] 48% | viability, T/C [33] 28.6% | viability, T/C [34] 22.2% | viability, T/C [35] 20.8% | viability, T/C [36] 19.9%
< 31.6 nM: IC50 (second compound 10 µM)
211 nM: IC50 (second compound 1 µM)
805 nM: IC50 (second compound 0.0316 µM)
46.8 nM: IC50 (second compound 3.16 µM)
